Assay [1] has as its system murine B16 melanoma cells. Nature of the assay: B16 murine melanoma cell proliferation (Promega Cell Titer 96 AQueous assay). The format is cell-based. The settings on record: 48 hours incubation, 0-90 micrograms/ml, FIG. 1. As for the experimental part:
5000 cells/well of murine B16 melanoma cells were plated in a 96-well plate and incubated for 48 hours with varying concentrations of cyclodextrin tetradecasulfate (0-90 micrograms/ml). Non-radioactive assay solution was prepared according to manufacturer's protocol (Promega Cell Titer 96 AQueous Assay Reagents). Cells were read using a Biorad benchmark microplate reader 2 hours after the assay solution was added to the well.

A further assay relates to lung metastasis. Nature of the assay: Lung metastasis in tumorigenic mice treated via drinking water. It counts as in vivo. The note with it: C57B1-6 mice, 10 mg/ml in drinking water for two weeks, FIG. 2. As for the experimental part:
C57B1-6 mice (n=2) were treated with 10 mg/ml β-cyclodextrin tetradecasulfate in their drinking water for two weeks. The control animal (n=2) was given cyclodextrin-free drinking water.

In the case of β-cyclodextrin tetradecasulfate, the cell proliferation entry in assay [1] is reported as “cell proliferation decreases”. In the assay with lung metastasis, the “lung metastasis compared to the control animal” value is “⅓ fewer lung metastasis”.

For the origin of these results see patent publication US20030236223A1, “Metastasis modulating activity of highly sulfated oligosaccharides” (Greenville Hospital System, priority 2002, published 2003).
